Measurements as given in patent US10987349B2, “Antitumor agent and bromodomain inhibitor” (FUJIFILM Corporation, priority 2016, dated 2021).

Key:
BRD4 BD1 = biological target: T1, BRD4 BD1 (Homo sapiens, UniProt O60885); assay: Binding assay, BRD4 BD1 to acetylated histone H4 Peptide-Biotin (EPIgeneous Binding Domain Kit A); settings: for inhibition at 0.3 µM: test compound at 300 nmol/L, read-out: Binding inhibition percentage BRD4 BD1
T1 construct: BRD2 BD1, BRD3 BD1 and BRD4 BD1 (Cisbio); purchased Cisbio
Procedure, shortened: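 HTRF competition: bromodomain protein (added at 20 nmol/L) and biotinylated tetra-acetyl H4(1-25) peptide (added at 25 nmol/L) were incubated with compound, streptavidin-d2 and anti-GST Eu cryptate for 20 h at room temperature. Inhibition came from the 665/620 nm ratio relative to DMSO; IC50 by four-parameter fit; some compounds were tested only at 300 nmol/L final.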

[1] = test system: human acute myeloid leukemia cell line MOLM-13; assay: Cell growth test (Cell Titer Glo) MOLM-13; assay type: cell-based; settings: 3 to 5 days
Description: The human undifferentiated thymoma cell line Ty-82 (JCRB), the human acute myeloid leukemia cell lines MV4-11 (ATCC), MOLM-13 (ATCC) and RS4-11 (ATCC), the human lymphoma cell line Raji (JCRB), the human cervical epidermoid carcinoma cell line Hela (JCRB), the human lung adenocarcinoma cell line A549 (ATCC), the human colon cancer cell lines DLD1 (DS Pharma) and HCT116 (DS Pharma), and the human pancreatic cancer cell line MIAPACA-2 (ATCC) were used to carry out a cell growth test.
Ty-82, MV4-11, MOLM-13, RS4-11, Raji and DLD1 were each seeded in a well plate, in which Roswell Park Memorial Institute (RPMI)-1640 medium supplemented with penicillin/streptomycin and fetal bovine serum (FBS) with a final concentration of 10% was placed. Hela was seeded in Dulbecco's Modified Eagle's medium (DMEM) supplemented with penicillin/streptomycin and FBS with a final concentration of 10%. A549 and MIAPACA-2 were each seeded in a well plate, in which Minimum Essential Medium (MEM) supplemented with penicillin/streptomycin and FBS with a final concentration of 10% was placed. HCT116 was seeded in a well plate, in which McCoy's 5A medium supplemented with penicillin/streptomycin and FBS with a final concentration of 10% was placed.
Thereafter, a medium containing a test compound serially diluted with DMSO, or DMSO, was added to each well of the plate, in which the cells had been seeded, and the obtained mixture was then cultured under conditions of 37° C. and 5% CO2 for 3 to 5 days. Cell Titer Glo reaction solution (Promega) was added to the culture, and the amount of luminescence was then measured using Envision plate reader (PerkinElmer). Since the amount of luminescence is in proportion to the concentration of adenosine triphosphate (ATP) in cells, the amount of luminescence was used as an indicator of the number of living cells. The growth inhibition percentage of the test compound in each concentration was calculated according to the following equation. Growth inhibition percentage (%)=(amount of luminescence in test compound−added well)/(amount of luminescence in DMSO−added well)×100
The growth inhibition percentage of the test compound in each concentration was plotted by performing a non-linear regression analysis [(log (inhibitor) vs. response—Variable slope (four parameters)], using Graphpad prism 5, and a 50% growth inhibitory concentration [GI50 (nmol/L)] was then calculated.

c-Myc protein = assay: Expression of c-Myc protein in Ty-82 cells, Western blotting; assay type: cell-based, human; settings: 100 nmol/L, 24 hours
Method: It has been known that the antitumor action of a bromodomain inhibitor is associated with a c-Myc protein. Please refer to, for example, Non-Patent Document 3: Delmore J E et al., Cell, Vol. 146, pp. 904 to 917, 2011. With reference to the method described in Non-Patent Document 3, the ability of the compound of the present example to inhibit the expression of a c-Myc protein in cancer cells was evaluated according to Western blotting.
The human undifferentiated thymoma cell line Ty-82 (JCRB) used in the evaluation was seeded in a 6-well plate, in which an RPMI-1640 medium supplemented with penicillin/streptomycin and FBS with a final concentration of 10% was placed. A medium containing a test compound serially diluted with dimethyl sulfoxide (DMSO), or DMSO, was added to each well of the 6-well plate in which the cells had been seeded, and the obtained mixture was then cultured under conditions of 37° C. and 5% CO2 for 24 hours. Thereafter, the cells were recovered, and were then washed with PBS. After that, Lysis Buffer (10-fold diluted Cell Lysis Buffer (10×) (CST Japan), to which Halt Protease and Phosphatase Inhibitor Cocktail (Thermofisher Scientific) were added) was added to the resulting cells. The above-described cell suspension was subjected to an ultrasonic treatment to disintegrate the cells, and was then centrifuged to recover a supernatant. Sample buffer was added thereto, and the obtained mixture was then heated at 95° C. for 5 minutes.
A sample prepared from the above-described supernatant was loaded at a protein mass of 10 μg/lane on XV PANTERA GEL 7.5%-15% (D.R.C), and was then subjected to electrophoresis. The electrophoresed protein was transcribed on a transcription membrane, and was then inoculated with Anti-Myc antibody (CST, Catalog No. 9402) and then with IRDye® 680LT Donkey anti-Rabbit IgG (H+L) (LI-COR). Using Odessey (LI-COR), the fluorescence intensity at an excitation wavelength of 700 nm was measured, and the expression level of the c-Myc protein was then quantified.

IC50 (BRD4 BD1)	inhibition at 0.3 µM (BRD4 BD1)	GI50 [1]	Structure (SMILES)	expression level of c-Myc protein (c-Myc protein)
0.005 µM	93%	0.032 µM	CCn1c(=O)cc(C2CCN(C)CC2)c2cc(C(=O)N(C)c3ccc(C)cc3)ccc21 [Example 14, 1-Ethyl-N-methyl-N-(4-methylphenyl)-4-(1-methylpiperidin-4-yl)-2-oxo-1,2-dihydroquinoline-6-carboxamide]	significantly reduced
0.003 µM	94%	0.016 µM	CCn1c(=O)cc(C2CCN(C)CC2)c2cc(C(=O)N(C)c3ccc4c(c3)CCC4)ccc21 [Example 17, N-(2,3-dihydro-1H-inden-5-yl)-1-ethyl-N-methyl-4-(1-methylpiperidin-4-yl)-2-oxo-1,2-dihydroquinoline-6-carboxamide]	significantly reduced
0.02 µM	91%	0.037 µM	CCn1c(=O)cc(N2CCOCC2)c2cc(-n3c(-c4ccc(Cl)cc4)c[nH]c3=O)ccc21 [Example 245, 6-(5-(4-chlorophenyl)-2-oxo-2,3-dihydro-1H-imidazol-1-yl)-1-ethyl-4-(morpholin-4-yl)quinolin-2(1H)-one]	significantly reduced
